Assay results from paper PMC5699961 (Clinical pharmacokinetics, 2018).
Where two headings read alike, the source gives them in different places.

Legend:
healthy subjects = assay: Exposure-safety analysis; format: in vivo, human
[1] = tested on: patients with solid tumors; settings: cited from earlier work
[2] = tested on: swine subjected to hemorrhage and polytrauma; settings: intravenous VPA, absence of isotonic fluid resuscitation; cited from earlier work
blood brain barrier = settings: swine subjected to TBI and hemorrhagic shock; cited from earlier work
[3] = 140 mg/kg dose, oral dosing; cited from earlier work
[4] = Single-dose plasma pharmacokinetics of intravenous VPA; settings: for concentration at 24 h / AUC / AUC(0-inf) / Cmax / half-life: human, plasma; for concentration at 24 h: intravenous; for AUC / AUC(0-inf) / Cmax / half-life: iv
[5] = 2-Compartment population model (final model), mean (SD)
[6] = 3-Compartment population model, mean (SD)

## CCCC(CCC)C(=O)O [VPA, valproic acid]
Healthy subjects; Chills
  Dose breakpoint for occurrence of adverse events: > 6597 mg
Healthy subjects; Hearing adverse events
  Dose breakpoint for occurrence of adverse events: > 3222 mg
[1]; cancer patients, intravenous, daily for five days
  Maximum tolerated dose (MTD): 60 mg/kg/day
[1]; ref 21
  Previously established maximum tolerated single intravenous dose: 60 mg/kg
[1]; ref 22
  Previously established maximum intravenous dose: 75 mg
  Previously established maximum tolerated single intravenous dose: 75 mg/kg
[2]
  Decrease in mortality: 50%
Blood brain barrier
  Expression of tight-junction and basement membrane associated proteins (zona occludin-1, laminin, claudin-5): increased expression
[3]
  Peak plasma concentrations: 300 to 400 µg/mL
[4]; [5]
  Q1, intercompartmental clearance between central and first peripheral compartment: 0.64 (0.32) L/h
  Vc, volume of distribution of the central compartment: 11.1 (2.62) L
  Vp1, volume of distribution of the first peripheral compartment: 7.70 (3.28) L
[4]; [6]
  Q1, intercompartmental clearance between central and first peripheral compartment: 0.62 (0.29) L/h
  Q2, intercompartmental clearance between central and second peripheral compartment: 3.48(1.47) L/h
  Vp1, volume of distribution of the first peripheral compartment: 7.63 (3.29) L
  Vp2, volume of distribution of the second peripheral compartment: 0.32(0.06) L
[4]; 15 mg/kg
  concentration at 24 h: 22.6 µg/mL
  AUC: 1180 µg·h/mL
  AUC(0-inf): 1710 µg·h/mL
  Cmax: 112 µg/mL
  half-life: 12.1 h
[4]; 30 mg/kg
  concentration at 24 h: 39.5 µg/mL
  AUC: 2200 µg·h/mL
  AUC(0-inf): 3390 µg·h/mL
  Cmax: 235 µg/mL
  half-life: 12.1 h
[4]; 60 mg/kg
  concentration at 24 h: 39.8 µg/mL
  AUC: 2240 µg·h/mL
  AUC(0-inf): 3040 µg·h/mL
  Cmax: 248 µg/mL
  half-life: 11.3 h
[4]; 90 mg/kg
  concentration at 24 h: 56.9 µg/mL
  AUC: 4630 µg·h/mL
  AUC(0-inf): 5810 µg·h/mL
  Cmax: 541 µg/mL
  half-life: 8.9 h
[4]; 120 mg/kg
  concentration at 24 h: 49.7 µg/mL
  AUC: 3840 µg·h/mL
  AUC(0-inf): 4980 µg·h/mL
  Cmax: 537 µg/mL
  half-life: 9 h
[4]; 130 mg/kg
  concentration at 24 h: 97.2 µg/mL
  AUC: 7740 µg·h/mL
  AUC(0-inf): 11300 µg·h/mL
  Cmax: 855 µg/mL
  half-life: 8.8 h
[4]; 140 mg/kg
  concentration at 24 h: 140 µg/mL
  AUC: 9870 µg·h/mL
  AUC(0-inf): 13500 µg·h/mL
  Cmax: 1270 µg/mL
  half-life: 9.7 h
[4]; 150 mg/kg
  concentration at 24 h: 81.4 µg/mL
  AUC: 6910 µg·h/mL
  AUC(0-inf): 8520 µg·h/mL
  Cmax: 694 µg/mL
  half-life: 7.9 h
